Laboratory results reported in US20050186587A1, “Method for screening a substance which can suppress degradation of a nuclear receptor or a substance which can promote degradation of a nuclear receptor” (Interite, Inc., priority 2004, published 2005).
Where a SMILES comes first, the peptide text is derived from it. The star is where a group is joined. Cbz = O=C(OCc1ccccc1)*

What was measured:
[1] = target: T1, estrogen receptor alpha (ERα) (Homo sapiens, UniProt P03372); assay: Amount of ERα in MCF-7 cell nucleus extracts by Western blotting (Test Example 1); type: cell-based; settings: MCF-7 cells, MG132 at 1 μM, both with and without estrogen, FIG. 1(b) lanes 3 and 4
T1 construct: ERα was first purified from MCF-7 cell nucleus extract by immune precipitation; endogenous in cells; host or cells: MCF-7 cells
Method: (§1) HeLa cells, human breast cancer-derived MCF-7 cells and human fetal kidney-derived 293 cells were cultured at 37° C. in Dulbecco's modified Eagle's medium (DMEM) containing 10% FCS in humidified air containing 5% (partial pressure) carbon dioxide gas.
10 μg of each extract of MCF-7 cells and 293 cells was isolated by 8% or 10% SDS-PAGE, and transferred to a nitrocellulose membrane. This membrane was incubated for 1 hour in a blocking solution of 1% BSA (bovine serum albumin) and 5% skim milk added to 25 mM tris-buffered saline containing 0.02% Tween20 (T-TBS), and then reacted with the respective antibodies for 1 hour at 25° C. After being washed 3 times for 10 minutes each in 25° C. T-TBS, the membranes were incubated for 1 minute at 25° C. with peroxidase-bound goat anti-mouse antibodies. Protein that reacted with the antibodies was made visible with an Amersham Pharmacia high-sensitivity chemical luminescence detection system (ECL).

ERαΔAD = type: cell-based, human; settings: 293 cells, 1 μM MG132, FIG. 2 lanes 2 and 4
Method: as §1
(§2) The target DNA was diluted with 100 μL of OptiMEM medium (Life Technologies, Inc.). The amount of DNA was adjusted to a total of 1 μg by addition of blank vector. 10 μL of lipofectamine reagent (Life Technologies, Inc.) was diluted in the same way with 100 μL of OptiMEM medium. After being left at room temperature for 5 minutes, the two liquids were mixed and left for an additional 20 minutes to form a complex. This mixture was then dripped directly onto cells seeded on 12-well plates and cultured to 40-50% confluence in DMEM containing 0.2% FCS treated with activated charcoal, and transfection was performed. 6 hours after transfection normal medium was substituted, and after 24 hours' further culture the ligand was added.
10 μg of each extract of MCF-7 cells and 293 cells was isolated by 8% or 10% SDS-PAGE, and transferred to a nitrocellulose membrane. […] Protein that reacted with the antibodies was made visible with an Amersham Pharmacia high-sensitivity chemical luminescence detection system (ECL). […]

Flag-ERαΔAD = target: T2, Flag-ERαΔAD (Homo sapiens, UniProt P03372); assay: Ubiquitination of Flag-ERαΔAD expressed in 293 cells, immune precipitation and anti-ubiquitin Western blotting; type: cell-based; settings: no estrogen added but MG132 added, FIG. 3 lane 3
T2 construct: ERαΔAD (1-534) consisting of amino acids 1 through 534; expressed in transfected cells; host or cells: 293 cells
T2 sequence (P03372 1-534): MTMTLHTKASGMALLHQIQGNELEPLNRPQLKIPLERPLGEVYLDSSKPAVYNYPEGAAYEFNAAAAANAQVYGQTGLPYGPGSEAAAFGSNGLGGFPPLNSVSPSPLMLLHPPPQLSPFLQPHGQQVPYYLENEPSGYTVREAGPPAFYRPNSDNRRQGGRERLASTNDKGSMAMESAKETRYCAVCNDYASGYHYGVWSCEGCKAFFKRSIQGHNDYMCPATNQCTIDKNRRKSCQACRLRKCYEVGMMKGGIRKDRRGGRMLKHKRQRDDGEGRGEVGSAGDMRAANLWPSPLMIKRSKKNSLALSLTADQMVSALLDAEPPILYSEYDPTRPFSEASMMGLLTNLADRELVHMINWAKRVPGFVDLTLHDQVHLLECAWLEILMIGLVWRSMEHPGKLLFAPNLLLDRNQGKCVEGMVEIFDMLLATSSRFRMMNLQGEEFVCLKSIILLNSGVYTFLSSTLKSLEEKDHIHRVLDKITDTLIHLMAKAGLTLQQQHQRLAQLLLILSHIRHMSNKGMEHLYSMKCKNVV
Method: About 50 μg of MCF-7 cell nucleus extract or 293 cell nucleus extract was incubated for 1 hour at 4° C. in 25 mM tris-buffered saline containing 0.1% Tween20 (T-TBS) together with 50 μg of either glutathione sepharose beads or anti-Flag tag antibody beads (Santa Cruz Biotechnology). Beads to which protein had bound were washed 4 times with 25 mM tris-buffered saline containing 0.1% Tween20 and centrifuged for 1 minute at 5000 rpm, and the beads were collected. Protein was eluted from the beads by boiling in loading buffer.
(§3) Western blotting using the respective antibodies was accomplished by well-known methods (Yanagisawa, J. et al, Molecular Cell (2002) March, 9(3):553-562) with some alterations. 10 μg of each extract of MCF-7 cells and 293 cells was isolated by 8% or 10% SDS-PAGE, and transferred to a nitrocellulose membrane. This membrane was incubated for 1 hour in a blocking solution of 1% BSA (bovine serum albumin) and 5% skim milk added to 25 mM tris-buffered saline containing 0.02% Tween20 (T-TBS), and then reacted with the respective antibodies for 1 hour at 25° C. After being washed 3 times for 10 minutes each in 25° C. T-TBS, the membranes were incubated for 1 minute at 25° C. with peroxidase-bound goat anti-mouse antibodies. Protein that reacted with the antibodies was made visible with an Amersham Pharmacia high-sensitivity chemical luminescence detection system (ECL).

[2] = system: ERα, ERα(V364E), ERα(C447A), ERαΔAD or ERα(L540Q); assay: Amount of normal and mutant ERα protein in 293 cells with proteasome inhibitor (Test Example 8, FIG. 11); type: cell-based, human; settings: MG132 added to the cells, FIG. 11 lanes 1 through 5
Method: CHIP or CHIPΔUbox (a mutant having the ubiquitin ligase activity removed) were made to be expressed in cells already co-expressing normal ERα and a dominant negative mutant of ERα, and the transcriptional activation ability of ERα was measured. […] The amount of ERα in the cell nucleus extract was measured at the same time by Western blotting. ERα(V364E), ERα(C447A), ERαΔAD and ERα(L540Q) were used as the dominant negative mutants of ERα. […] ERαΔAD is a helix 12 deletion mutant, while ERα(L540Q) is a helix 12 single-residue substitution mutant, and the transcriptional activity of both is low because they can no longer bind to transcriptional activation factors. ERαΔAD and ERα(L540Q) are not temperature sensitive.
The amount of protein was also slightly lower in the case of ERαΔAD (See FIG. 11 lane 4).

ERα and CHIP = target: T3, ERα and CHIP (Homo sapiens, UniProt P03372); settings: 293 cells, 24 hours, 10 nM estrogen, 1 μM tamoxifen (OHT) or 100 nM fulvestrant (ICI), FIG. 6
T3 sequence (P03372 1-595): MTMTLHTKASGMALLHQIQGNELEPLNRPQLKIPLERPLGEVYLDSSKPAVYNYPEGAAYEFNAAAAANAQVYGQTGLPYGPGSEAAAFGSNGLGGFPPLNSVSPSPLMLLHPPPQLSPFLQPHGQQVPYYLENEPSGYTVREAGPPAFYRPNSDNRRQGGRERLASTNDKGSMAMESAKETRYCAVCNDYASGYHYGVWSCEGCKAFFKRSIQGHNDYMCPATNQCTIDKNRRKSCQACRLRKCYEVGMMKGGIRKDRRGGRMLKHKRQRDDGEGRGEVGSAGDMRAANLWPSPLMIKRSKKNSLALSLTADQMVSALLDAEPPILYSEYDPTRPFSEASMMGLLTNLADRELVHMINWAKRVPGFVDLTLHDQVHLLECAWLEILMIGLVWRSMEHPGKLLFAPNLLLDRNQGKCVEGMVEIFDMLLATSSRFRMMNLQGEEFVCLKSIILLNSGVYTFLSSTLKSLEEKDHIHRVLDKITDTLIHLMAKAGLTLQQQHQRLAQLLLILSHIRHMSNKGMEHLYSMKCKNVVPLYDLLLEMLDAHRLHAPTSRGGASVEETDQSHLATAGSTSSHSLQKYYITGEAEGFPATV
Method: as §2
GST pull-down was performed by well-known methods (Yanagisawa, J. et al, Molecular Cell (2002) March, 9(3):553-562). […]
Western blotting using the respective antibodies was accomplished by well-known methods (Yanagisawa, J. et al, Molecular Cell (2002) March, 9(3):553-562) with some alterations. […] Protein that reacted with the antibodies was made visible with an Amersham Pharmacia high-sensitivity chemical luminescence detection system (ECL). […]

ERα = target: T4, ERα (Homo sapiens, UniProt P03372); settings: 293 cells, 24 hours, 1 μM OHT or 100 nM ICI (or estrogen), FIG. 7, FIGS. 8(a) and (b)
T4 sequence (P03372 1-595): T3 sequence (P03372 1-595)
Method: as §3

[3] = target: T5, estrogen receptor alpha (ERα), not bound to a ligand, P03372
T5 chain: T3 sequence (P03372 1-595)

With `CC(C)C[C@@H](C=O)NC(=O)[C@H](CC(C)C)NC(=O)[C@H](CC(C)C)NC(=O)OCc1ccccc1` [MG132] (Cbz-Leu-Leu-Leu-aldehyde) the “amount of ERα” value [1] was “increased dramatically”, the “degradation of ERαΔAD” value (ERαΔAD) was “inhibited” and the “ubiquitinated ERαΔAD (Flag-ERαΔAD-Ub)” value (Flag-ERαΔAD) was “strong accumulation of a polyubiquitin protein”. The “amount of expression of mutant ERα versus normal ERα” value [2] was “no difference between the various mutants and normal ERα”.

With `C[C@]12CC[C@@H]3c4ccc(O)cc4C[C@@H](CCCCCCCCC[S+]([O-])CCCC(F)(F)C(F)(F)F)[C@H]3[C@@H]1CC[C@@H]2O` (some centres unmarked) [fulvestrant] the “co-precipitation of ERα with CHIP” value (ERα and CHIP) was “co-precipitated with CHIP only when cultured without the addition of a ligand” and the “degradation of ERα by CHIP” value (ERα) was “block degradation of ERα by CHIP”.

B1: CHIP (carboxyl-terminus of Hsc70 interacting protein) (protein)
chain: MKGKEEKEGGARLGAGGGSPEKSPSAQELKEQGNRLFVGRKYPEAAACYGRAITRNPLVAVYYTNRALCYLKMQQHEQALADCRRALELDGQSVKAHFFLGQCQLEMESYDEAIANLQRAYSLAKEQRLNFGDDIPSALRIAKKKRWNSIEERRIHQESELHSYLSRLIAAERERELEECQRNHEGDEDDSHVRAQQACIEAKHDKYMADMDELFSQVDEKRKKRDIPDYLCGKISFELMREPCITPSGITYDRKDIEEHLQRVGHFDPVTGSPLTQEQFIPNLAMKEVIDAFISENGWVEDY
For B1, the “amount of degradation of ERαΔAD measured by Western blotting” value (ERαΔAD, P03372) was “both ERαΔAD and ERα were strongly degraded when estrogen was not added (see FIG. 7, lane 3). This degradation increased when the expressed amount of CHIP was increased” and the “amount of degradation of ERα measured by Western blotting” value [3] was “both ERαΔAD and ERα were strongly degraded when estrogen was not added (see FIG. 7, lane 3). This degradation increased when the expressed amount of CHIP was increased”.
